Laboratory results taken from patent publication EP4775209A1 (Ascentawits Pharmaceuticals, Ltd., priority 2023, dated 2025).
Like-named read-outs stand apart in the source and are kept apart here.

How the values were obtained:
[1] = system: HuPrime® pancreatic cancer PA2637 subcutaneous xenograft model
Description: (§1) For the experimental procedures and relevant evaluation indicators of the aforementioned solid tumor animal efficacy models, please refer to Examples 7, 8, and 9 in Patent Application 1, namely PCT/US2016/062114, with Publication No. WO2017/087428 (corresponding to Chinese Application CN201680044608.1, with Publication No. CN108290911B), Examples 3 and 4 in Patent Application 2, namely PCT/CN2021/078115, with Publication No. WO2022178821, and Research Literature 1. The aforementioned non-clinical animal efficacy models (PDX) mentioned in the present application are all similar to those in the aforementioned literatures, and the specific operation procedures thereof are not described herein again.
PA2637 is a HuPrime® xenograft model established from a pancreatic cancer tumor of a patient.
(§2) Efficacy was evaluated based on the relative tumor growth inhibition rate (TGI, %), and safety was evaluated based on animal body weight changes and mortality.

[2] = system: human liver cancer (HepG2-GFP) orthotopic CDX model; assay: Human liver cancer orthotopic CDX efficacy model (QW×2 regimen); format: in vivo, nude mice; details: 1.25, 2.5, 5 mg/kg, QW×2, drug free one week, QW×2, I.V.; significant dose-effect relationship
Description: The data from this experiment correspond to the data of the HepG2 model in Example 3-1 of the aforementioned Patent Application 2 (see Table 5 and Figures 4A, 4B of this application).

[3] = Toxicokinetics (D1+D8/21 Days) in monkeys; format: in vivo, cynomolgus monkeys; details: both sexes, cynomolgus monkey, in vivo, iv
[4] = cited from earlier work
[5] = system: HuPrime® lung cancer LU5161 subcutaneous xenograft model
Description: as §1
LU5161 is a HuPrime® xenograft model established from a lung tumor (small cell lung cancer) of a patient.
as §2

[6] = system: human lung cancer (H460-GFP) subcutaneous CDX model; assay: Human lung cancer CDX efficacy model (QW×2 regimen); format: in vivo, nude mice; details: QW×2, QW×2, I.V., P<0.01
Protocol: Images of tumor burden in mice were non-invasively collected twice a week by a Fluor Vivo Model 100 imaging system, and the mean value of tumor area in each group was calculated based on imaging analysis results. […] The data from this experiment are the data for the H460 model in Example 3-1 of the aforementioned Patent Application 2 (see Table 5 and Figure 5 of this application).

solid tumors = details: 21 patients of 39; cited from earlier work
[7] = Phase I clinical trial of AST-3424 in China: blood pharmacokinetics compared with US data; format: in vivo, human; details: human, Chinese and American patients, printed as 'almost lower than', read-out: concentrations after 8 hours
[8] = system: HuPrime® lung cancer LU5173 subcutaneous xenograft model
Description: as §1
The LU5173 is a HuPrime® xenograft model established from a lung cancer (small cell lung carcinoma) tumor of a patient.
Efficacy was evaluated based on the relative tumor growth inhibition (TGI, %), and safety was evaluated based on animal body weight changes and mortality.

[9] = cited from earlier work; remark: listed apart in the source
[10] = GLP repeated-administration toxicity study (D1+D8/21 Days) in monkeys; format: in vivo, cynomolgus monkeys
Protocol: In a GLP repeated-administration toxicity study in cynomolgus monkeys, AS-3424 was intravenously infused to cynomolgus monkeys at doses of 0, 0.1, 0.3, and 0.6 mg/kg over 30 minutes on Days 1, 8, 22, and 29. […] Ultimately, the highest non-severe toxic dose (HNSTD) in monkeys was determined to be 0.6 mg/kg.

[11] = Phase I solid tumor clinical trial of AST-3424 in China (CTR20191399): safety and tolerability; format: in vivo, human; details: Day 1 and Day 8 of every 21-day treatment cycle; Chinese subjects
Protocol: The treatment cycle was 21 days, with administration on Day 1 and Day 8. Dose escalation was conducted across five dose levels: 1.0, 2.0, 4.0, 6.0, and 8.0 mg/m^2. After discussion by the Safety Review Committee (SRC), the MTD and RP2D when administered on Day 1 and Day 8 of every 21-day treatment cycle were confirmed as 6.0 mg/m^2 (a total dose of 12 mg/m^2 per cycle). The safety and tolerability were slightly better in the U.S. subjects than in the Chinese subjects (with a marginally higher MTD/RP2D under the same dosing regimen than those in the Chinese population). The safety profile trends were consistent (most adverse events were mild in severity; the most common adverse events included anemia, decreased platelet count, fatigue, and vomiting). Other safety, PK and efficacy results were generally similar to those in the clinical trials of OBI-3424.

[12] = GLP repeated-administration toxicity study (D1+D8/21 Days) in rats; format: in vivo, Sprague-Dawley (SD) rats; details: intravenous bolus on Days 1, 8, 22, 29
Protocol: Rats developed test article-related, dose-dependent lesions at the injection sites and the distal ends of the tails. At the 10 mg/kg dose, there were mild and reversible changes in hematology and serum biochemistry parameters.

[13] = 1 mg/kg QD×5, 2 cycles, 6 mice per group
[14] = 1 mg/kg QD×5, 2 cycles, no animal deaths
[15] = Regimen A, 12 mg/m^2 dose level

C[C@H](OP(=O)(N1CC1)N1CC1)c1ccc([N+](=O)[O-])c(Oc2cccc(C(=O)N(C)C)c2)c1 [AST-3424]
tumor clearance [1, 13]: the tumor in one mouse was cleared | tolerability (body weight changes and mortality) ([1]; 1 mg/kg QD×5, 2 cycles, no animal deaths, no apparent drug toxicity): well tolerated | TGI (%) ([1]; Day 36 after first administration, AST-3424 1 mg/kg QD×5, 16 days off, QD×5 (P < 0.001), ifosfamide 60 mg/kg QD×5/week for 2 weeks (no statistical difference)): 80.78% | mean tumor volume ([1]; Day 36 after first administration, AST-3424 1 mg/kg QD×5, 16 days off, QD×5, ifosfamide 60 mg/kg QD×5/week for 2 weeks, vehicle 977.46): 186.08 mm^3 | effect on the orthotopic model of human liver cancer in mice [2]: strong inhibitory effect | Vd [3]: 0.223 to 0.676 L/kg | clearance [3]: 11.8 to 18.2 mL/min/kg | T1/2 ([4]; after intravenous OBI-3424, US patients, parent drug and metabolite): approximately 0.4 hours | pharmacokinetic characteristics ([4]; doses ranging from 1 to 14 mg/m^2, minimal accumulation after repeated administration): linear pharmacokinetic characteristics | tumor clearance [5, 13]: the tumor in one mouse was cleared | tolerability (body weight changes and mortality) [5, 14]: well tolerated | TGI (%) ([5]; day 29 after first administration, AST-3424 1 mg/kg QD×5, 16 days off, QD×5 (P < 0.001), ifosfamide 60 mg/kg QD×5/week for 2 weeks (p > 0.05)): 95.62% | mean tumor volume ([5]; day 29 after first administration, AST-3424 1 mg/kg QD×5, 16 days off, QD×5, ifosfamide 60 mg/kg QD×5/week for 2 weeks, negative control 2238.97): 94.42 mm^3 | TGI ([6]; 0.625 mg/kg, 1-week off): 60.2% | TGI ([6]; 1.25 mg/kg, 1 week off): 67.2% | TGI ([6]; 2.5 mg/kg, 1 week off): 88% | confirmed best response stable disease (solid tumors): 54% | concentration at 8 h [7]: < 1 ng/mL | tolerability (body weight changes and mortality) [8, 14]: well tolerated | TGI (%) ([8]; day 32 after first administration, AST-3424 1 mg/kg QD×5, 16 days off, QD×5 (P < 0.001), ifosfamide 6.0 mg/kg QD×5/week for 2 weeks (p > 0.05)): 78.56% | mean tumor volume ([8]; day 32 after first administration, AST-3424 1 mg/kg QD×5, 16 days off, QD×5, ifosfamide 6.0 mg/kg QD×5/week for 2 weeks, vehicle 2276.68): 503.91 mm^3 | probability of grade ≥3 TEAEs ([9]; 12 mg/m^2 on Day 1 and Day 8 of 21-day cycle (all 6 patients)): 100% | probability of grade ≥3 TEAEs ([9]; 12 mg/m^2 only on Day 1 of 21-day cycle (2 out of 6 patients)): 33.3% | recommended Phase II dose (RP2D) ([9]; 21 days per cycle, administration on Day 1 (once every 3 weeks)): 12 mg/m^2 | dose-limiting toxicity: anemia Grade 3-4 [9, 15]: 5 out of 6 | dose-limiting toxicity: thrombocytopenia Grade 3-4 [9, 15]: 5 out of 6 | maximum tolerated dose (MTD) ([9]; Regimen A: i.v., 21 days per cycle, administration on Day 1 and Day 8): 8 mg/m^2 | nadir of the platelet count ([9]; Regimen A): Day 15 or Day 22 | patients with Grade 3 or higher anemia ([9]; Regimen B, 14 mg/m^2, among 6 patients treated): 3 patients | MTD ([9]; Regimen B: i.v., 21 days per cycle, administration only on Day 1, highest tested dose 14 mg/m^2): not reached | patients who experienced treatment-emergent adverse events (TRAEs) ([9]; all 39 patients (32/39)): 82% | Grade ≥3 TRAEs ([9]; all 39 patients): 49% | TRAE anemia ([9]; all 39 patients): 64% | TRAE fatigue ([9]; all 39 patients): 21% | TRAE nausea ([9]; all 39 patients): 26% | TRAE thrombocytopenia ([9]; all 39 patients): 51% | patients who experienced serious TRAEs ([9]; all 39 patients): 3 patients | most prominent toxic reaction ([10]; 0.1, 0.3, 0.6 mg/kg on Days 1, 8, 22, 29, intestinal necrosis/hyperplasia in pathology): diarrhea and vomiting | highest non-severe toxic dose (HNSTD) ([10]; 30-minute i.v. infusion on Days 1, 8, 22, 29): 0.6 mg/kg | MTD [11]: 6.0 mg/m^2 | RP2D [11]: 6.0 mg/m^2 | NOAEL ([12]; Sprague-Dawley, rat, in vivo, read-out: no-observed-adverse-effect level (NOAEL)): 3 mg/kg | dose at which 10% of animals showed severe toxic reactions (STD10) [12]: 30 mg/kg
